Tests used:
hCA IX = hCA IX (Homo sapiens, UniProt Q16790); assay: CO2 hydrase stopped-flow inhibition assay, hCA IX; settings: for experimental activity class hCA IX: Table S2, Ki threshold of 1 µM
Description: (§1) The ionic strength was maintained at a constant using 0.1 M Na2SO4 or NaClO4, as these anions are non-inhibitory at the concentration employed. […] Inhibitor stock solutions were prepared at a concentration of 10 mM in 1:1, v/v DMSO/water mixture and were subsequently diluted up to 0.01 nM in the assay buffer. To determine the inhibition constant (Ki), at least seven different inhibitor concentrations were tested. The enzyme and the inhibitor were pre-incubated for 15 min to allow the complete formation of the enzyme-inhibitor complex. Each inhibitor concentration was tested in triplicate, and the values reported throughout the study represent the mean of these replicates. […] These enzyme concentrations were measured by titration with ethoxzolamide and spectrophotometrically for CA I and II.

hCA XII = hCA XII (Homo sapiens, UniProt O43570); assay: CO2 hydrase stopped-flow inhibition assay, hCA XII; settings: for experimental activity class hCA XII: Table S2, Ki threshold of 1 µM
Description: as §1

hCA I = hCA I (Homo sapiens, UniProt P00915); assay: CO2 hydrase stopped-flow inhibition assay, hCA I; settings: for experimental activity class hCA I: Table S2, Ki threshold of 1 µM
Description: as §1

hCA II = hCA II (Homo sapiens, UniProt P00918); assay: CO2 hydrase stopped-flow inhibition assay, hCA II; settings: for experimental activity class hCA II: Table S2, Ki threshold of 1 µM
Description: as §1

α-amylase = system: α-amylase; design: method as in PMID 26395057; settings: cited from earlier work
[1] = system: Z mutant (Glu342Lys) of α1-antitrypsin; design: method as in PMID 17918823; settings: cited from earlier work
bacterial DNA gyrase B = system: bacterial DNA gyrase B; design: method as in PMID 20045642; settings: cited from earlier work

Chain of hCA I (P00915 whole entry): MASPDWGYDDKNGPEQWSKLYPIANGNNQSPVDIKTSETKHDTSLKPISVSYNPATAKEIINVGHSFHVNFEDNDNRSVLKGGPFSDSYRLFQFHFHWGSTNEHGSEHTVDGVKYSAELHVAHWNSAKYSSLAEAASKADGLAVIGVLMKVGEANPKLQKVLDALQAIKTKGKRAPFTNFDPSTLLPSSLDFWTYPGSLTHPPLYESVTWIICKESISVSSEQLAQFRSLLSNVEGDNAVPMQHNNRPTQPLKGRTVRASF
Chain of hCA XII (O43570 25-354): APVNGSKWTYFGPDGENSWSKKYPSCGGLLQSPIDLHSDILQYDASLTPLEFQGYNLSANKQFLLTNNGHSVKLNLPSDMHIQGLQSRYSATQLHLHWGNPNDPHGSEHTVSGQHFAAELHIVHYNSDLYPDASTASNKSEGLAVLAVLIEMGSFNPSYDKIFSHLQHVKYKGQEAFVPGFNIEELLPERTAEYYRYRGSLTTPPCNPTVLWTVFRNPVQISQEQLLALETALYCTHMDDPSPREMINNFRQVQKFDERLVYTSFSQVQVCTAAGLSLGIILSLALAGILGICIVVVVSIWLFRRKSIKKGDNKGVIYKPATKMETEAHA

Row | Structure (SMILES) | Ki (hCA IX) [nM] | experimental activity class hCA IX (hCA IX) | Ki (hCA XII) [nM] | experimental activity class hCA XII (hCA XII) | Ki (hCA I) [nM] | experimental activity class hCA I (hCA I) | Ki (hCA II) [nM] | experimental activity class hCA II (hCA II) | selectivity for hCA II over hCA I (hCA II; hCA II vs hCA I) | inhibitory activity against α-amylase (α-amylase) | effect on rate of polymerization of Z α1-antitrypsin [1] | bacterial DNA gyrase B inhibition (bacterial DNA gyrase B)
1 | O=C(Nn1cnnc1)c1cccc(S(=O)(=O)Nc2cc(C(F)(F)F)ccc2Cl)c1 [Compound 3] | > 100000 | Inactive | > 100000 | Inactive | > 100000 | Inactive | > 100000 | Inactive | – | – | – | –
2 | NS(=O)(=O)c1ccc(OCCn2ccnc2)cc1 [Compound 4] | 2520 | Inactive | 603 | Active | 36.2 | Active | 6.8 | Active | approximately five times more active | – | – | –
3 | O=S(=O)(Nc1cccc(C(F)(F)F)c1)c1cc(Cl)ccc1Cl [Compound 10] | > 100000 | Inactive | > 100000 | Inactive | 31600 | Inactive | > 100000 | Inactive | – | – | – | –
4 | NS(=O)(=O)c1ccc(Nc2nc(-c3ccc(O)cc3O)cs2)cc1 [Compound 12] | 313 | Active | 648 | Active | 1080 | Inactive | 151 | Active | – | promising inhibitory activity | reduce the rate of polymerization | inhibitor

Second part, led by results:

Row | Ki (hCA IX) [nM] | experimental activity class hCA IX (hCA IX) | Ki (hCA XII) [nM] | experimental activity class hCA XII (hCA XII) | Ki (hCA I) [nM] | experimental activity class hCA I (hCA I) | Ki (hCA II) [nM] | experimental activity class hCA II (hCA II) | selectivity for hCA II over hCA I (hCA II; hCA II vs hCA I) | Structure (SMILES) | inhibitory activity against α-amylase (α-amylase) | effect on rate of polymerization of Z α1-antitrypsin [1] | bacterial DNA gyrase B inhibition (bacterial DNA gyrase B)
5 | 713 | Active | 30.6 | Active | 1020 | Inactive | 11.6 | Active | – | NS(=O)(=O)c1ccc(CCNC(=O)C/C=C2/NC(=O)c3c(sc4c3CCCC4)N2)cc1 [Compound 2] | – | – | –
6 | 73.7 | Active | 49.4 | Active | 666 | Active | 16.4 | Active | – | CCOc1ccccc1C(=O)Nc1nc2ccc(S(N)(=O)=O)cc2s1 [Compound 11] | – | – | –

— PMC12300992, “A Machine Learning Platform for Isoform-Specific Identification and Profiling of Human Carbonic Anhydrase Inhibitors” (Pharmaceuticals, 2025)
